From EP0376518B1, “Phospholipid nucleosides” (ELI LILLY AND COMPANY, priority 1988, dated 1990)

How the values were obtained:
Format in all cases: in vivo
[1] = tested on: M-5 ovarian carcinoma; experiment: Test 3: M-5 ovarian carcinoma in mice, daily dose; conditions: for Toxicity (number of animals which exhibited signs of toxicity): group of 10 mice; for Inhibition (percent inhibition of tumor growth): tumors measured day 15
From the text: (§1) Representative compounds of the invention have been tested using murine tumors in female mice to determine their antineoplastic efficacy. Several different tumor systems have been used in these tests, and the compounds have been administered on a number of different dosage schedules. In general, all the tests were started by inoculating female mice with the tumor, subcutaneously. After some number of days delay, intraperitoneal administration of the test compound was begun. Each treatment group consisted of 10 mice, and untreated control groups were included in all experiments. At the completion of the treatment period, the tumors of the control and the treated mice were measured and the mass of them calculated from the measurements. The data are reported here as percent inhibition of tumor growth, based on the tumors of the untreated control mice.
The compound of Example 2 was tested against M-5 ovarian carcinoma, giving a daily dose from day 5 to day 14 after inoculation. The tumors were measured on day 15.

[2] = tested on: M-5 ovarian carcinoma; experiment: Test 1: M-5 ovarian carcinoma in mice, single dose; conditions: single dose two days after inoculation; for Toxicity (number of animals which exhibited signs of toxicity): group of 10 mice; for Inhibition (percent inhibition of tumor growth): tumors measured 13 days after inoculation
From the text: as §1
The tumor in this test was M-5 ovarian carcinoma; the compounds were administered as a single dose, two days after inoculation, and the tumors were measured 13 days after inoculation.

[3] = tested on: M-5 ovarian carcinoma; experiment: Test 2: M-5 ovarian carcinoma in mice, three doses; conditions: for Toxicity (number of animals which exhibited signs of toxicity): group of 10 mice; for Inhibition (percent inhibition of tumor growth): tumors measured day 15
From the text: as §1
The compound of Example 2 was tested against M-5 ovarian carcinoma. Three doses were administered on days 5, 10 and 13 after inoculation, and the tumors were measured on day 15.

[4] = tested on: X-5563 plasma cell myeloma; experiment: Test 6: X-5563 plasma cell myeloma in mice; conditions: for Toxicity (number of animals which exhibited signs of toxicity): group of 10 mice; for Inhibition (percent inhibition of tumor growth): tumors measured day 11
From the text: as §1
The compound of Example 2 was tested against X-5563 plasma cell myeloma, giving doses on days 1, 5 and 9 after inoculation and measuring the tumors on day 11.

[5] = tested on: 6C3HED lymphosarcoma; experiment: Test 4: 6C3HED lymphosarcoma in mice; conditions: for Toxicity (number of animals which exhibited signs of toxicity): group of 10 mice; for Inhibition (percent inhibition of tumor growth): tumors measured day 10
From the text: as §1
The compound of Example 2 was tested against 6C3HED lymphosarcoma, giving a dose on days 1, 5 and 9 after inoculation, and measuring the tumors on day 10.

[6] = tested on: colon carcinoma 26; experiment: Test 5: colon carcinoma 26 in mice; conditions: for Toxicity (number of animals which exhibited signs of toxicity): group of 10 mice; for Inhibition (percent inhibition of tumor growth): tumors measured day 13
From the text: as §1
The compound of Example 2 was tested against colon carcinoma 26, giving doses on days 3, 8 and 11 after inoculation, and measuring the tumors on day 13.

[7] = tested on: C3H mammary adenocarcinoma; experiment: Test 7: C3H mammary adenocarcinoma in mice; conditions: for Toxicity (number of animals which exhibited signs of toxicity): group of 10 mice; for Inhibition (percent inhibition of tumor growth): tumors measured day 11
From the text: as §1
The compound of Example 2 was tested against C3H mammary adenocarcinoma, giving does on days 1, 5 and 9 after inoculation and measuring the tumors on day 11.

[8] = tested on: Madison lung carcinoma; experiment: Test 8: Madison lung carcinoma in mice; conditions: for Toxicity (number of animals which exhibited signs of toxicity): group of 10 mice; for Inhibition (percent inhibition of tumor growth): tumors measured day 11
From the text: as §1
The compound of Example 2 was tested against Madison lung carcinoma, giving doses on days 1, 5 and 9 after inoculation and measuring the tumors on day 11.

[9] = tested on: Lewis lung carcinoma; experiment: Test 9: Lewis lung carcinoma in mice; conditions: for Toxicity (number of animals which exhibited signs of toxicity): group of 10 mice; for Inhibition (percent inhibition of tumor growth): tumors measured day 11
From the text: as §1
The compound of Example 2 was tested against Lewis lung carcinoma, giving doses on days 1, 5 and 9 after inoculation and measuring the tumors on day 11.

[10] = 0.6 mg/kg intraperitoneal daily from day 5 to day 14 after inoculation
[11] = 1.2 mg/kg intraperitoneal daily from day 5 to day 14 after inoculation
[12] = 2.5 mg/kg intraperitoneal daily from day 5 to day 14 after inoculation
[13] = 5 mg/kg intraperitoneal daily from day 5 to day 14 after inoculation
[14] = 1.8 mg/kg intraperitoneal on days 5, 10 and 13 after inoculation
[15] = 3.8 mg/kg intraperitoneal on days 5, 10 and 13 after inoculation
[16] = 7.5 mg/kg intraperitoneal on days 5, 10 and 13 after inoculation
[17] = 15 mg/kg intraperitoneal on days 5, 10 and 13 after inoculation
[18] = 30 mg/kg intraperitoneal on days 5, 10 and 13 after inoculation
[19] = 1.8 mg/kg intraperitoneal on days 1, 5 and 9 after inoculation
[20] = 3.8 mg/kg intraperitoneal on days 1, 5 and 9 after inoculation
[21] = 7.5 mg/kg intraperitoneal on days 1, 5 and 9 after inoculation
[22] = 15 mg/kg intraperitoneal on days 1, 5 and 9 after inoculation
[23] = 30 mg/kg intraperitoneal on days 1, 5 and 9 after inoculation
[24] = 1.8 mg/kg intraperitoneal on days 3, 8 and 11 after inoculation
[25] = 3.8 mg/kg intraperitoneal on days 3, 8 and 11 after inoculation
[26] = 7.5 mg/kg intraperitoneal on days 3, 8 and 11 after inoculation
[27] = 15 mg/kg intraperitoneal on days 3, 8 and 11 after inoculation
[28] = 30 mg/kg intraperitoneal on days 3, 8 and 11 after inoculation

CCCCCCCCCCCCCCCC(=O)OC[C@H](COP(=O)(O)OP(=O)(O)OC[C@H]1O[C@@H](n2ccc(N)nc2=O)C(F)(F)[C@@H]1O)OC(=O)CCCCCCCCCCCCCCC [Example 2]
Toxicity (number of animals which exhibited signs of toxicity) [1, 10]: 0/10
Inhibition (percent inhibition of tumor growth) [1, 10]: 42%
Toxicity (number of animals which exhibited signs of toxicity) [1, 11]: 0/10
Inhibition (percent inhibition of tumor growth) [1, 11]: 58%
Toxicity (number of animals which exhibited signs of toxicity) [1, 12]: 0/10
Inhibition (percent inhibition of tumor growth) [1, 12]: 69%
Toxicity (number of animals which exhibited signs of toxicity) [1, 13]: 0/10
Inhibition (percent inhibition of tumor growth) [1, 13]: 100%
Toxicity (number of animals which exhibited signs of toxicity) ([1]; 10 mg/kg intraperitoneal daily from day 5 to day 14 after inoculation): 10/10
Toxicity (number of animals which exhibited signs of toxicity) ([2]; 25 mg/kg intraperitoneal): 0/10
Inhibition (percent inhibition of tumor growth) ([2]; 25 mg/kg intraperitoneal): 72%
Toxicity (number of animals which exhibited signs of toxicity) ([2]; 50 mg/kg intraperitoneal): 4/10
Inhibition (percent inhibition of tumor growth) ([2]; 50 mg/kg intraperitoneal): 87%
Toxicity (number of animals which exhibited signs of toxicity) [3, 14]: 0/10
Inhibition (percent inhibition of tumor growth) [3, 14]: 22%
Toxicity (number of animals which exhibited signs of toxicity) [3, 15]: 0/10
Inhibition (percent inhibition of tumor growth) [3, 15]: 55%
Toxicity (number of animals which exhibited signs of toxicity) [3, 16]: 0/10
Inhibition (percent inhibition of tumor growth) [3, 16]: 61%
Toxicity (number of animals which exhibited signs of toxicity) [3, 17]: 0/10
Inhibition (percent inhibition of tumor growth) [3, 17]: 92%
Toxicity (number of animals which exhibited signs of toxicity) [3, 18]: 2/10
Inhibition (percent inhibition of tumor growth) [3, 18]: 99%
Toxicity (number of animals which exhibited signs of toxicity) [4, 19]: 0/10
Inhibition (percent inhibition of tumor growth) [4, 19]: 0%
Toxicity (number of animals which exhibited signs of toxicity) [4, 20]: 0/10
Inhibition (percent inhibition of tumor growth) [4, 20]: 2%
Toxicity (number of animals which exhibited signs of toxicity) [4, 21]: 0/10
Inhibition (percent inhibition of tumor growth) [4, 21]: 68%
Toxicity (number of animals which exhibited signs of toxicity) [4, 22]: 1/10
Inhibition (percent inhibition of tumor growth) [4, 22]: 84%
Toxicity (number of animals which exhibited signs of toxicity) [4, 23]: 9/10
Inhibition (percent inhibition of tumor growth) [4, 23]: 100%
Toxicity (number of animals which exhibited signs of toxicity) [5, 19]: 0/10
Inhibition (percent inhibition of tumor growth) [5, 19]: 21%
Toxicity (number of animals which exhibited signs of toxicity) [5, 20]: 0/10
Inhibition (percent inhibition of tumor growth) [5, 20]: 32%
Toxicity (number of animals which exhibited signs of toxicity) [5, 21]: 0/10
Inhibition (percent inhibition of tumor growth) [5, 21]: 47%
Toxicity (number of animals which exhibited signs of toxicity) [5, 22]: 0/10
Inhibition (percent inhibition of tumor growth) [5, 22]: 60%
Toxicity (number of animals which exhibited signs of toxicity) [5, 23]: 7/10
Inhibition (percent inhibition of tumor growth) [5, 23]: 98%
Toxicity (number of animals which exhibited signs of toxicity) [6, 24]: 0/10
Inhibition (percent inhibition of tumor growth) [6, 24]: 0%
Toxicity (number of animals which exhibited signs of toxicity) [6, 25]: 0/10
Inhibition (percent inhibition of tumor growth) [6, 25]: 21%
Toxicity (number of animals which exhibited signs of toxicity) [6, 26]: 0/10
Inhibition (percent inhibition of tumor growth) [6, 26]: 28%
Toxicity (number of animals which exhibited signs of toxicity) [6, 27]: 0/10
Inhibition (percent inhibition of tumor growth) [6, 27]: 66%
Toxicity (number of animals which exhibited signs of toxicity) [6, 28]: 8/10
Inhibition (percent inhibition of tumor growth) [6, 28]: 89%
Toxicity (number of animals which exhibited signs of toxicity) [7, 19]: 0/10
Inhibition (percent inhibition of tumor growth) [7, 19]: 0%
Toxicity (number of animals which exhibited signs of toxicity) [7, 20]: 0/10
Inhibition (percent inhibition of tumor growth) [7, 20]: 0%
Toxicity (number of animals which exhibited signs of toxicity) [7, 21]: 0/10
Inhibition (percent inhibition of tumor growth) [7, 21]: 22%
Toxicity (number of animals which exhibited signs of toxicity) [7, 22]: 0/10
Inhibition (percent inhibition of tumor growth) [7, 22]: 60%
Toxicity (number of animals which exhibited signs of toxicity) [7, 23]: 6/10
Inhibition (percent inhibition of tumor growth) [7, 23]: 100%
Toxicity (number of animals which exhibited signs of toxicity) [8, 19]: 0/10
Inhibition (percent inhibition of tumor growth) [8, 19]: 12%
Toxicity (number of animals which exhibited signs of toxicity) [8, 20]: 0/10
Inhibition (percent inhibition of tumor growth) [8, 20]: 18%
Toxicity (number of animals which exhibited signs of toxicity) [8, 21]: 0/10
Inhibition (percent inhibition of tumor growth) [8, 21]: 33%
Toxicity (number of animals which exhibited signs of toxicity) [8, 22]: 0/10
Inhibition (percent inhibition of tumor growth) [8, 22]: 68%
Toxicity (number of animals which exhibited signs of toxicity) [8, 23]: 4/10
Inhibition (percent inhibition of tumor growth) [8, 23]: 76%
Toxicity (number of animals which exhibited signs of toxicity) [9, 19]: 0/10
Inhibition (percent inhibition of tumor growth) [9, 19]: 6%
Toxicity (number of animals which exhibited signs of toxicity) [9, 20]: 0/10
Inhibition (percent inhibition of tumor growth) [9, 20]: 0%
Toxicity (number of animals which exhibited signs of toxicity) [9, 21]: 0/10
Inhibition (percent inhibition of tumor growth) [9, 21]: 0%
Toxicity (number of animals which exhibited signs of toxicity) [9, 22]: 0/10
Inhibition (percent inhibition of tumor growth) [9, 22]: 0%
Toxicity (number of animals which exhibited signs of toxicity) [9, 23]: 4/10
Inhibition (percent inhibition of tumor growth) [9, 23]: 41%
